Among the data in US10214519B2, “Phosphatidylinositol 3-kinase inhibitors” (Gilead Sciences, Inc., priority 2016, dated 2019) are IC50 values, retold here.

This test concerns the target PI3Kβ (Homo sapiens (Human), UniProt P42338). The test can be described thus: PI3K isoform TR-FRET enzymatic assay (PI3Kβ). The settings on record: 2× Km ATP, 30 minutes at 25° C. Type of test: biochemical. In short, it runs like this: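 IC50 came from four-parameter dose-response fits, normalized between DMSO and 1 μM wortmannin controls. The read-out was TR-FRET (615/665 nm) of PIP3 displacing fluorescent PIP3 from Europium GRP-1 after 10 mM EDTA termination. Compounds were incubated with purified heterodimeric PI3Kβ for 30 min at 25° C.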
(In general: In TR-FRET formats the signal depends on donor and acceptor labels being close together.)

PI3Kβ, sequence (P42338 whole entry, canonical isoform): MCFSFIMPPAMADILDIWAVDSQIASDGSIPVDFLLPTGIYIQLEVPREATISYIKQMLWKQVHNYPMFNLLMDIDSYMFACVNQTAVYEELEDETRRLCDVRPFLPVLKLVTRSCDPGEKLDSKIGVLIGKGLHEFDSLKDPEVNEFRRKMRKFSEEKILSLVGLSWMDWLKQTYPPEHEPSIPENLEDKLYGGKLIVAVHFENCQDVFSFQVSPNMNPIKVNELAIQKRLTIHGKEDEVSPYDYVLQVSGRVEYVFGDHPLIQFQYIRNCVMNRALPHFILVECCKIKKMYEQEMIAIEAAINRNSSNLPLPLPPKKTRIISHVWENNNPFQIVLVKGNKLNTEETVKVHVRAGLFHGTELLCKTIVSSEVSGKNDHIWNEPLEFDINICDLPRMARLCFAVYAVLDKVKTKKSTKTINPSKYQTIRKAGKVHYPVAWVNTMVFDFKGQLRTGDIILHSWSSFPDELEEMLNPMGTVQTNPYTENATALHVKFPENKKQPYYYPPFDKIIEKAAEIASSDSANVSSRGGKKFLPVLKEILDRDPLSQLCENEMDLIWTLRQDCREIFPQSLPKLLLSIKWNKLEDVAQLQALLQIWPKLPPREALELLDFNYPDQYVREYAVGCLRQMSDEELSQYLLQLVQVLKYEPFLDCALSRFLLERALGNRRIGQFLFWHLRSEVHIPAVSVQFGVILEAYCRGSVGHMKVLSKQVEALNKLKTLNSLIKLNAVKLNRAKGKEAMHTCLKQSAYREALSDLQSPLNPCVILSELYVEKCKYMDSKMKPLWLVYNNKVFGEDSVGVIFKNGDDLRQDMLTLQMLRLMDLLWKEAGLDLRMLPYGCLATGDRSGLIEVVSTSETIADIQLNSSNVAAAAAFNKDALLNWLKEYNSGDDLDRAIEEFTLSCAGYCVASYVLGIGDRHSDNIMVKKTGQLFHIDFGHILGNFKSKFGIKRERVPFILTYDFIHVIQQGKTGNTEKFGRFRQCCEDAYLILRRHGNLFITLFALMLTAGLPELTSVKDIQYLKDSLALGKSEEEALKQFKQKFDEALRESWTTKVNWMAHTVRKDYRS
PI3Kβ, sequence (P27986 whole entry partner, canonical isoform): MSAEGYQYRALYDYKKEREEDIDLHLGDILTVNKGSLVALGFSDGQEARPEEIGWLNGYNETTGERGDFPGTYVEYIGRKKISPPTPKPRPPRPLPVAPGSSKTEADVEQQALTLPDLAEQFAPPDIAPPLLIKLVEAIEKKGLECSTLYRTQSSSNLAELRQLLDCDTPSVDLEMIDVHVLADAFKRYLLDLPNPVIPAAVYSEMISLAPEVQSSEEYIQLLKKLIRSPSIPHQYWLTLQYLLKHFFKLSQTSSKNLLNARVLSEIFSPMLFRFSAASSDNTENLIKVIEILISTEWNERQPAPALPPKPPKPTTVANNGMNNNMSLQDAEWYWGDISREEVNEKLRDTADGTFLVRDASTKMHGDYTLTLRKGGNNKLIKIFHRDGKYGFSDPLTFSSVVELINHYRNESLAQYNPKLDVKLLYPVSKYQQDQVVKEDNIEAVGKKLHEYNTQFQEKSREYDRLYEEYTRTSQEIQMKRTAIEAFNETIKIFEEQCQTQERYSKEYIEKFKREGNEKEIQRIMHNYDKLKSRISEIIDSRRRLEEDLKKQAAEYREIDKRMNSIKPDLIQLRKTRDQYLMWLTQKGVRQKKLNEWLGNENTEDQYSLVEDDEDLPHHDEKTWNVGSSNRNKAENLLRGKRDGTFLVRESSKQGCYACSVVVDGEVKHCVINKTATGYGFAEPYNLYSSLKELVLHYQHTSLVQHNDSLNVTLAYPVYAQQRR

What is called IC50 is the concentration at which inhibition is half-maximal. Read a low IC50 as greater potency. The molecule `Cc1cc(-n2c(C)nc3c(-c4nnc[nH]4)cc(N4CCOCC4)cc32)c2cccc(Cl)c2n1` [Example 64, 4-[3-(8-chloro-2-methylquinolin-4-yl)-2-methyl-7-(4H-1,2,4-triazol-3-yl)benzimidazol-5-yl]morpholine] yielded a concentration for half-maximal inhibition (IC50) of 0.021 µM.

In turn, `CCc1nc2c(-c3cnc(C)[nH]3)cc(N3CCOCC3)cc2n1-c1ccnc2c(Cl)cccc12` [Example 245, 4-[3-(8-chloroquinolin-4-yl)-2-ethyl-7-(2-methyl-1H-imidazol-5-yl)benzimidazol-5-yl]morpholine] returned an IC50 of 0.021 µM.

In turn, `CCc1nc2c(-c3ncc[nH]3)cc(N3CCOCC3)cc2n1-c1ccnc2c(F)ccc(F)c12` (atropisomer, axis not shown) [Compound 371, 4-(1-(5,8-difluoroquinolin-4-yl)-2-ethyl-4-(1H-imidazol-2-yl)-1H-benzo[d]imidazol-6-yl)morpholine] registered an IC50 of 6.8 µM.

As to `Cc1c[nH]c(-c2cc(N3CCOCC3)cc3c2nc(C)n3-c2ccnc3c(Cl)cccc23)n1` [Example 176, 4-[3-(8-chloroquinolin-4-yl)-2-methyl-7-(4-methyl-1H-imidazol-2-yl)benzimidazol-5-yl]morpholine], the midpoint of inhibition, the IC50, lay at 0.51 µM.

In the case of `CCCc1nc2c(-c3nnc[nH]3)cc(N3CCOCC3)cc2n1-c1ccnc2c(Cl)ccc(F)c12` [Example 48, 4-(1-(8-chloro-5-fluoroquinolin-4-yl)-2-propyl-4-(4H-1,2,4-triazol-3-yl)-1H-benzo[d]imidazol-6-yl)morpholine], inhibition was half-maximal at 0.018 µM (IC50).

`Cc1cc(-n2c(C)nc3c(-c4cnc(Cl)[nH]4)cc(N4CCOCC4)cc32)c2cccc(F)c2n1` [Example 282, 4-[7-(2-chloro-1H-imidazol-5-yl)-3-(8-fluoro-2-methylquinolin-4-yl)-2-methylbenzimidazol-5-yl]morpholine]: the IC50 worked out at 0.025 µM.

`CCCc1nc2c(-c3ncco3)cc(N3CCOCC3)cc2n1-c1ccnc2c(Cl)cc(F)cc12` [Example 222, 4-[3-(8-chloro-6-fluoroquinolin-4-yl)-7-(1,3-oxazol-2-yl)-2-propylbenzimidazol-5-yl]morpholine] displayed an IC50 of 0.012 µM.

`CCc1c(C)nc2ccccc2c1-n1cnc2c(-c3nnc[nH]3)cc(N3CCOCC3)cc21` [Example 71, 4-[3-(3-ethyl-2-methylquinolin-4-yl)-7-(4H-1,2,4-triazol-3-yl)benzimidazol-5-yl]morpholine]: it took 0.023 µM to reach half-maximal inhibition (IC50).

Turning to `Fc1ccc2c(-n3c(C4CC4)nc4c(-c5cnc(Cl)[nH]5)cc(N5CCOCC5)cc43)ccnc2c1Cl` [Example 296, 4-[3-(8-chloro-7-fluoroquinolin-4-yl)-7-(2-chloro-1H-imidazol-5-yl)-2-cyclopropylbenzimidazol-5-yl]morpholine], half-maximal inhibition (IC50) was put at 0.017 µM.

In turn, `CC(C)c1nc2c(-c3nnc[nH]3)cc(N3CCOCC3)cc2n1-c1ccnc2c(Cl)cccc12` [Example 36, 4-(1-(8-chloroquinolin-4-yl)-2-isopropyl-4-(4H-1,2,4-triazol-3-yl)-1H-benzo[d]imidazol-6-yl)morpholine] gave an IC50 of 0.011 µM.

In the case of `Cc1nc2c(-c3nnc(C(C)C)[nH]3)cc(N3CCOCC3)cc2n1-c1ccnc2c(Cl)cccc12` [Example 138, 4-[3-(8-chloroquinolin-4-yl)-2-methyl-7-(5-propan-2-yl-4H-1,2,4-triazol-3-yl)benzimidazol-5-yl]morpholine], half-maximal inhibition (IC50) required 0.14 µM.

The molecule `Cc1cc(-n2c(C)nc3c(-c4nc(C)n[nH]4)cc(N4CCOCC4)cc32)c2ccc(F)cc2n1` [Example 79, 4-[3-(7-fluoro-2-methylquinolin-4-yl)-2-methyl-7-(3-methyl-1H-1,2,4-triazol-5-yl)benzimidazol-5-yl]morpholine] came in with an IC50 of 0.11 µM.

`Fc1ccc(F)c2c(-n3cnc4c(-c5cnc[nH]5)cc(N5CCOCC5)cc43)ccnc12` [Example 336, 4-[3-(5,8-difluoroquinolin-4-yl)-7-(1H-imidazol-5-yl)benzimidazol-5-yl]morpholine]: the IC50 came out at 0.005 µM.

With `CCc1nc2c(-c3cnc(Cl)[nH]3)cc(N3CCOCC3)cc2n1-c1ccnc2c(Cl)cccc12` [Example 279, 4-[7-(2-chloro-1H-imidazol-5-yl)-3-(8-chloroquinolin-4-yl)-2-ethylbenzimidazol-5-yl]morpholine], the 50% inhibitory concentration (IC50) was determined as 0.01 µM.

Molecule `Cc1nc2c(-c3cnccn3)cc(N3CCOCC3)cc2n1-c1ccnc2c(Cl)cccc12` [Example 246, 4-[3-(8-chloroquinolin-4-yl)-2-methyl-7-pyrazin-2-ylbenzimidazol-5-yl]morpholine] came in with an IC50 of 1.1 µM.

With `Fc1ccc2c(-n3cnc4c(-c5nnc[nH]5)cc(N5CCOCC5)cc43)ccnc2c1Cl` [Example 29, 4-(1-(8-chloro-7-fluoroquinolin-4-yl)-4-(4H-1,2,4-triazol-3-yl)-1H-benzo[d]imidazol-6-yl)morpholine], the half-maximal inhibitory concentration (IC50) is 0.007 µM.

Turning to `Cc1nc2c(-c3cn[nH]c3)cc(N3CCOCC3)cc2n1-c1ccnc2c(Cl)cccc12` [Example 183, 4-(1-(8-chloroquinolin-4-yl)-2-methyl-4-(1H-pyrazol-4-yl)-1H-benzo[d]imidazol-6-yl)morpholine], inhibition was half-maximal at 0.17 µM (IC50).

As to `Cc1cnc(-c2cc(N3CCOCC3)cc3c2nc(C)n3-c2ccnc3c(Cl)cccc23)s1` [Example 215, 4-[3-(8-chloroquinolin-4-yl)-2-methyl-7-(5-methyl-1,3-thiazol-2-yl)benzimidazol-5-yl]morpholine], the midpoint of inhibition, the IC50, lay at 0.63 µM.

For the molecule `CCCc1nc2c(-c3nnc[nH]3)cc(N3CCOCC3)cc2n1-c1ccnc2ccccc12` [Example 41, 4-(2-propyl-1-(quinolin-4-yl)-4-(4H-1,2,4-triazol-3-yl)-1H-benzo[d]imidazol-6-yl)morpholine], the IC50 came to 0.021 µM.

The molecule `Fc1cccc2c(-n3c(C4CC4)nc4c(-c5cnc(Cl)[nH]5)cc(N5CCOCC5)cc43)ccnc12` [Example 287, 4-[7-(2-chloro-1H-imidazol-5-yl)-2-cyclopropyl-3-(8-fluoroquinolin-4-yl)benzimidazol-5-yl]morpholine] displayed an IC50 of 0.056 µM.

In the case of `CCc1nc2c(-c3cnc(Cl)[nH]3)cc(N3CCOCC3)cc2n1-c1ccnc2c(F)cccc12` [Example 284, 4-[7-(2-chloro-1H-imidazol-5-yl)-2-ethyl-3-(8-fluoroquinolin-4-yl)benzimidazol-5-yl]morpholine], the IC50 was found to be 0.013 µM.

Molecule `Cc1nc2c(-c3nnc[nH]3)cc(N3CCOCC3)cc2n1-c1c(F)cnc2ccccc12` [Example 153, 4-(1-(3-fluoroquinolin-4-yl)-2-methyl-4-(4H-1,2,4-triazol-3-yl)-1H-benzo[d]imidazol-6-yl)morpholine] gave an IC50 of 0.12 µM.

`Cc1cnc2c(Cl)cccc2c1-n1c(C)nc2c(-c3nnc[nH]3)cc(N3CCOCC3)cc21` [Example 68, 4-[3-(8-chloro-3-methylquinolin-4-yl)-2-methyl-7-(4H-1,2,4-triazol-3-yl)benzimidazol-5-yl]morpholine] came in with an IC50 of 0.008 µM.

Take `Cc1nc2c(-c3cnc[nH]3)cc(N3CCOCC3)cc2n1-c1ccnc2c(F)ccc(F)c12` [Example 335, 4-[3-(5,8-difluoroquinolin-4-yl)-7-(1H-imidazol-5-yl)-2-methylbenzimidazol-5-yl]morpholine]: the IC50 was determined as 0.015 µM.

In turn, `Cc1nc(-c2cc(N3CCOCC3)cc3c2nc(C)n3-c2ccnc3c(Cl)cccc23)sc1C` [Example 216, 4-[3-(8-chloroquinolin4-yl)-7-(4,5-dimethyl-1,3-thiazol-2-yl)-2-methylbenzimidazol-5-yl]morpholine] registered an IC50 of 0.38 µM.

With `Cc1nc2c(F)cccc2c(-n2c(C)nc3c(-c4nnc[nH]4)cc(N4CCOCC4)cc32)c1C` [Example 61, 4-[3-(8-fluoro-2,3-dimethylquinolin-4-yl)-2-methyl-7-(4H-1,2,4-triazol-3-yl)benzimidazol-5-yl]morpholine], the IC50 turned out to be 0.027 µM.

On to `Cc1nc2c(-c3cnc(Cl)[nH]3)cc(N3CCOCC3)cc2n1-c1ccnc2c(Cl)cccc12` [Example 278, 4-[7-(2-chloro-1H-imidazol-5-yl)-3-(8-chloroquinolin-4-yl)-2-methylbenzimidazol-5-yl]morpholine], for which the IC50 amounted to 0.004 µM.

For the molecule `Cc1nc2c(-c3cnc(Cl)[nH]3)cc(N3CCOCC3)cc2n1-c1ccnc2c(F)cccc12` [Example 260, 4-(4-(2-chloro-1H-imidazol-5-yl)-1-(8-fluoroquinolin-4-yl)-2-methyl-1H-benzo[d]imidazol-6-yl)morpholine], the IC50 amounted to 0.022 µM.

Consider `Cc1nc2c(-c3nnc(Cl)[nH]3)cc(N3CCOCC3)cc2n1-c1ccnc2c(Cl)cccc12` [Example 178, 4-[3-(8-chloroquinolin-4-yl)-7-(5-chloro-4H-1,2,4-triazol-3-yl)-2-methylbenzimidazol-5-yl]morpholine], for which the half-inhibitory concentration (IC50) was 0.012 µM.

As to `Cc1nnc(-c2cc(N3CCOCC3)cc3c2nc(C)n3-c2c(Cl)cnc3c(Cl)cccc23)[nH]1` (atropisomer, axis not shown) [Compound 366, 4-(1-(3,8-dichloroquinolin-4-yl)-2-methyl-4-(5-methyl-4H-1,2,4-triazol-3-yl)-1H-benzo[d]imidazol-6-yl)morpholine], the IC50 is 0.017 µM.

`Cc1cccc2nccc(-n3c(C)nc4c(-c5nnc[nH]5)cc(N5CCOCC5)cc43)c12` [Example 83, 4-[2-methyl-3-(5-methylquinolin-4-yl)-7-(4H-1,2,4-triazol-3-yl)benzimidazol-5-yl]morpholine]: half-maximal inhibition (IC50) required 0.019 µM.

`Cc1nc2c(-c3ccccc3)cc(N3CCOCC3)cc2n1-c1ccnc2c(Cl)cccc12` [Example 311, 4-(1-(8-chloroquinolin-4-yl)-2-methyl-4-phenyl-1H-benzo[d]imidazol-6-yl)morpholine]: the IC50 turned out to be 0.047 µM.

`Cc1nc2c(-c3nnc[nH]3)cc(N3CCOCC3)cc2n1-c1ccnc2cccc(F)c12` [Example 81, 4-[3-(5-fluoroquinolin-4-yl)-2-methyl-7-(4H-1,2,4-triazol-3-yl)benzimidazol-5-yl]morpholine]: 0.011 µM corresponded to half-maximal inhibition (IC50).
